Tests used:
[1] = Serum vitamin B12 levels after inhalation of aerosolized sample (Example 7); type: in vivo; conditions: 75 minutes after initial inhalation
Experimental: An electronic inhaler device powered by a 4.2V, 320 mAh lithium-ion battery was used to aerosolize a sample containing vitamin B12 in organic vegetable glycerin and 1,3-propanediol and the aerosolized sample was inhaled by test subjects. The sample was heated to between 75 to 260° C. with a 3 ohm heating element in about 2 to about 3 second intervals with about 5 to about 10 second rest periods for a total of […]. The mixture contained 60% glycerin and 40% 1,3-propanediol to which 2 mg/ml vitamin B12 was added. Serum vitamin B12 levels were measured in the test subjects before inhalation of the aerosolized sample and 75 minutes after initial inhalation of the aerosolized sample. Before inhalation, serum B12 levels averaged 403.0 pg/ml.

[2] = healthy individuals, cited from earlier work

cobalamin [vitamin B12]
increase of serum B12 compared to levels before inhalation [1]: 5.4%
serum B12 levels after inhalation (average) ([1]; 2 mg/ml vitamin B12, before inhalation 403.0 pg/ml): 424.7 pg/mL
fraction of oral supplement absorbed ([2]; 500 mcg oral supplement): 2%
amount of oral supplement absorbed ([2]; of a 500 mcg oral supplement): about 10 mcg

From US20200108009A1, “BIOAVAILABLE AEROSOLIZED SUPPLEMENT FORMULATIONS AND METHODS THEREOF” (Inhale Health LLC, priority 2017, published 2020)
